Assay results reported in patent US11464770B2, “Anticancer pharmaceutical composition” (NATIONAL CANCER CENTER, priority 2016, dated 2022).
Read-outs that look alike come from different tables or passages of the source.

System: blood cancer cell lines (e.g. HL-60, Jurkat, Raji, Ramos, Daudi, MOLT-4)
Assay: Cell based assay, cell viability (CellTiter-Glo), blood cancer cell lines
Conditions: Homo sapiens
Summary of the method: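 Cells were trypsinized, seeded, and left 24 h before compound was added at 0 to 2 μM final. After a further 72 h of culture, viability was read by ATP-based luminescence.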

[1] = MV4-11, blood cancer cell line MV-4-11, 72 hours, read-out: IC50, MV-4-11
[2] = blood cancer cell line Daudi, 72 hours, read-out: IC50, Daudi
[3] = blood cancer cell line HL-60, 72 hours, read-out: IC50, HL-60
[4] = blood cancer cell line Jurkat, 72 hours, read-out: IC50, Jurkat
[5] = blood cancer cell line MOLT-4, 72 hours, read-out: IC50, MOLT-4
[6] = blood cancer cell line Raji, 72 hours, read-out: IC50, Raji
[7] = blood cancer cell line Ramos (RA 1), 72 hours, read-out: IC50, Ramos (RA 1)
[8] = blood cancer cell line U-937, 72 hours, read-out: IC50, U-937

| IC50 [1] | IC50 [2] | IC50 [3] | IC50 [4] | IC50 [5] | IC50 [6] | IC50 [7] | IC50 [8] | Compound |
| --- | --- | --- | --- | --- | --- | --- | --- | --- |
| 1400 nM | > 2000 nM | 1720 nM | 1080 nM | 1440 nM | 1180 nM | 1670 nM | 1050 nM | CC(=O)c1c([S+]([O-])Cc2ccc(F)cc2F)[nH]c2c(Br)ccc(Cl)c2c1=O (stereo not shown) [Compound 29, 3-acetyl-8-bromo-5-chloro-2-((2,4-difluorobenzyl)sulfinyl)quinolin-4(1H)-one] |
| > 2000 nM | 1650 nM | 1930 nM | 940 nM | 1350 nM | 1100 nM | 1830 nM | > 2000 nM | CC(=O)c1c([S+]([O-])Cc2ccc(F)c(Cl)c2)[nH]c2c(Br)ccc(Cl)c2c1=O (stereo not shown) [Compound 31, 3-acetyl-8-bromo-5-chloro-2-((3-chloro-4-fluorobenzyl)sulfinyl)quinolin-4(1H)-one] |
| > 2000 nM | > 2000 nM | > 2000 nM | > 2000 nM | > 2000 nM | > 2000 nM | > 2000 nM | > 2000 nM | CC(=O)c1c(S(=O)(=O)Cc2ccccc2)[nH]c2c(Br)ccc(Cl)c2c1=O [Compound 34, 3-acetyl-2-(benzylsulfonyl)-8-bromo-5-chloroquinolin-4(1H)-one] |
| 1980 nM | 1800 nM | 1730 nM | 1130 nM | 1470 nM | 1160 nM | 1930 nM | > 2000 nM | CC(=O)c1c([S+]([O-])Cc2cc(Cl)ccc2Cl)[nH]c2c(Br)ccc(Cl)c2c1=O (stereo not shown) [Compound 44, 3-acetyl-8-bromo-5-chloro-2-((2,5-dichlorobenzyl)sulfinyl)quinolin-4(1H)-one] |
| > 2000 nM | > 2000 nM | > 2000 nM | > 2000 nM | > 2000 nM | > 2000 nM | > 2000 nM | > 2000 nM | CC(=O)c1c([S+]([O-])Cc2cc(F)cc(F)c2)[nH]c2c(Br)ccc(Cl)c2c1=O (stereo not shown) [Compound 46, 3-acetyl-8-bromo-5-chloro-2-((3,5-difluorobenzyl)sulfinyl)quinolin-4(1H)-one] |
| > 2000 nM | > 2000 nM | > 2000 nM | 1200 nM | 1660 nM | 1410 nM | > 2000 nM | > 2000 nM | CC(=O)c1c([S+]([O-])Cc2cccc(F)c2)[nH]c2c(Br)ccc(Cl)c2c1=O (stereo not shown) [Compound 50, 3-acetyl-8-bromo-5-chloro-2-((3-fluorobenzyl)sulfinyl)quinolin-4(1H)-one] |
| 680 nM | 1660 nM | 950 nM | 850 nM | 1440 nM | 760 nM | 1070 nM | 630 nM | CC(=O)c1c([S+]([O-])Cc2cc(C)on2)[nH]c2c(Br)ccc(Cl)c2c1=O (stereo not shown) [Compound 51, 3-acetyl-8-bromo-5-chloro-2-(((5-methylisoxazol-3-yl)methyl)sulfinyl)quinolin-4(1H)-one] |
| > 2000 nM | > 2000 nM | > 2000 nM | 1300 nM | 1470 nM | > 2000 nM | > 2000 nM | > 2000 nM | COc1cccc(C[S+]([O-])c2[nH]c3c(Br)ccc(Cl)c3c(=O)c2C(C)=O)c1 (stereo not shown) [Compound 55, 3-acetyl-8-bromo-5-chloro-2-((3-methoxybenzyl)sulfinyl)quinolin-4(1H)-one] |
| 1500 nM | 1250 nM | 1950 nM | 1060 nM | 1660 nM | 1120 nM | 1860 nM | 1750 nM | CC(=O)c1c([S+]([O-])Cc2ccc(SC(F)(F)F)cc2)[nH]c2c(Br)ccc(Cl)c2c1=O (stereo not shown) [Compound 56, 3-acetyl-8-bromo-5-chloro-2-((4-((trifluoromethyl)thio)benzyl)sulfinyl)quinolin-4(1H)-one] |
| > 2000 nM | > 2000 nM | > 2000 nM | > 2000 nM | > 2000 nM | > 2000 nM | > 2000 nM | > 2000 nM | CC(=O)c1c([S+]([O-])Cc2ccc([N+](=O)[O-])cc2)[nH]c2c(Cl)ccc(Cl)c2c1=O (stereo not shown) [Compound 57, 3-acetyl-5,8-dichloro-2-((4-nitrobenzyl)sulfinyl)quinolin-4(1H)-one] |

| Compound | IC50 [1] | IC50 [2] | IC50 [3] | IC50 [4] | IC50 [5] | IC50 [6] | IC50 [7] | IC50 [8] |
| --- | --- | --- | --- | --- | --- | --- | --- | --- |
| CC(=O)c1c([S+]([O-])Cc2ccc([N+](=O)[O-])cc2)[nH]c2c(Br)ccc(Cl)c2c1=O (stereo not shown) [Compound 33, 3-acetyl-8-bromo-5-chloro-2-((4-nitrobenzyl)sulfinyl)quinolin-4(1H)-one] | 1280 nM | > 2000 nM | 1770 nM | 1030 nM | 1440 nM | 970 nM | > 2000 nM | > 2000 nM |
